The record followed here is ChEMBL document CHEMBL4808186, “Structure-Based Discovery of Pyrimidine Aminobenzene Derivatives as Potent Oral Reversal Agents against P-gp- and BCRP-Mediated Multidrug Resistance” (J Med Chem, 2021).

Series [1] can be described thus: Oral bioavailability in Sprague-Dawley rat at 20 mg/kg in presence of N-(2-(6,7-Dimethoxy-3,4-dihydroisoquinolin-2(1H)-yl)ethyl)-3-((4-(furan-2-yl)pyrimidin-2-yl)amino)-4-methylbenzamide by UHPLC-MS analysis. It counts as ADME, organism-based. Conditions: in vivo.
A short description of series [2]: Tmax in Sprague-Dawley rat at 20 mg/kg, po by UHPLC-MS analysis. It is filed as ADME, organism-based. Conditions: in vivo.
A short description of series [3]: Tmax in Sprague-Dawley rat at 5 mg/kg, iv by UHPLC-MS analysis. It counts as ADME, organism-based. Conditions: in vivo.
A short description of series [4]: Apparent oral volume of distribution in Sprague-Dawley rat at 20 mg/kg, po in presence of N-(2-(6,7-Dimethoxy-3,4-dihydroisoquinolin-2(1H)-yl)ethyl)-3-((4-(furan-2-yl)pyrimidin-2-yl)amino)-4-methylbenzamide by UHPLC-MS analysis. Conditions: in vivo. It is filed as ADME, organism-based.
Series [5] is described as follows: Apparent oral clearance in Sprague-Dawley rat at 5 mg/kg, iv by UHPLC-MS analysis. It is filed as ADME, organism-based. Conditions: in vivo.
Series [6] can be described thus: AUC (0 to t) in Sprague-Dawley rat at 20 mg/kg, po in presence of N-(2-(6,7-Dimethoxy-3,4-dihydroisoquinolin-2(1H)-yl)ethyl)-3-((4-(furan-2-yl)pyrimidin-2-yl)amino)-4-methylbenzamide by UHPLC-MS analysis. It counts as ADME, organism-based. More on the design: dose 20 mg/kg. Conditions: in vivo.
Series [7] in a line: Cmax in Sprague-Dawley rat at 5 mg/kg, iv by UHPLC-MS analysis. The note with it: in vivo. It counts as ADME, organism-based. The arrangement: route intravenous, dose 5 mg/kg.
Series [8] in a line: Apparent oral clearance in Sprague-Dawley rat at 20 mg/kg, po in presence of N-(2-(6,7-Dimethoxy-3,4-dihydroisoquinolin-2(1H)-yl)ethyl)-3-((4-(furan-2-yl)pyrimidin-2-yl)amino)-4-methylbenzamide by UHPLC-MS analysis. The note with it: in vivo. It is filed as ADME, organism-based.
The nature of series [9]: Cmax in Sprague-Dawley rat at 20 mg/kg, po in presence of N-(2-(6,7-Dimethoxy-3,4-dihydroisoquinolin-2(1H)-yl)ethyl)-3-((4-(furan-2-yl)pyrimidin-2-yl)amino)-4-methylbenzamide by UHPLC-MS analysis. It counts as ADME, organism-based. The arrangement: route oral, dose 20 mg/kg. The note with it: in vivo.
Series [10] can be described thus: AUC (0 to t) in Sprague-Dawley rat at 5 mg/kg, iv by UHPLC-MS analysis. Conditions: in vivo. It counts as ADME, organism-based. The arrangement: dose 5 mg/kg.
The nature of series [11]: Tmax in Sprague-Dawley rat at 20 mg/kg, po in presence of N-(2-(6,7-Dimethoxy-3,4-dihydroisoquinolin-2(1H)-yl)ethyl)-3-((4-(furan-2-yl)pyrimidin-2-yl)amino)-4-methylbenzamide by UHPLC-MS analysis. It is filed as ADME, organism-based. The note with it: in vivo.
A short description of series [12]: Bioavailability in Sprague-Dawley rat at 5 mg/kg, iv by UHPLC-MS analysis. It is filed as ADME, organism-based. The note with it: in vivo.
A short description of series [13]: in vivo. The note with it: Sprague-Dawley, rat, po, 20 mg/kg.
Description: Half life in Sprague-Dawley rat at 20 mg/kg, po by UHPLC-MS analysis
A short description of series [14]: Oral bioavailability in Sprague-Dawley rat at 20 mg/kg by UHPLC-MS analysis. It counts as ADME, organism-based. The note with it: in vivo.
Series [15] is described as follows: in vivo. The note with it: Sprague-Dawley, rat, iv, 5 mg/kg.
Description: Half life in Sprague-Dawley rat at 5 mg/kg, iv by UHPLC-MS analysis
Series [16] in a line: AUC (0 to t) in Sprague-Dawley rat at 20 mg/kg, po by UHPLC-MS analysis. The arrangement: dose 20 mg/kg. It counts as ADME, organism-based. Conditions: in vivo.
The nature of series [17]: Cmax in Sprague-Dawley rat at 20 mg/kg, po by UHPLC-MS analysis. Conditions: in vivo. It is filed as ADME, organism-based. The arrangement: route oral, dose 20 mg/kg.
The nature of series [18]: Apparent oral clearance in Sprague-Dawley rat at 20 mg/kg, po by UHPLC-MS analysis. It counts as ADME, organism-based. Conditions: in vivo.
Series [19] is described as follows: Apparent oral volume of distribution in Sprague-Dawley rat at 5 mg/kg, iv by UHPLC-MS analysis. It counts as ADME, organism-based. The note with it: in vivo.
The nature of series [20]: Apparent oral volume of distribution in Sprague-Dawley rat at 20 mg/kg, po by UHPLC-MS analysis. It is filed as ADME, organism-based. Conditions: in vivo.

Each structure is given as a SMILES string.

In general, bioavailability refers to dose-corrected exposure relative to a reference, in per cent. By Tmax is commonly meant the time from dosing to the highest level. As usually defined, the Vd/F is the apparent distribution volume after extravascular dosing. As a reminder, the CL/F is clearance divided by bioavailability, as obtained after extravascular dosing. Usually AUC(0-t) stands for exposure summed from dosing to a finite time, without extrapolation to infinity. Broadly, the Cmax is the highest concentration seen after dosing. As usually defined, the half-life is the time needed for the level to fall by half in the phase considered. A high value points to slow loss. On to `CC(=O)O[C@H]1C(=O)[C@@]2(C)[C@H]([C@H](OC(=O)c3ccccc3)[C@]3(O)C[C@H](OC(=O)[C@H](O)[C@@H](NC(=O)c4ccccc4)c4ccccc4)C(C)=C1C3(C)C)[C@]1(OC(C)=O)CO[C@@H]1C[C@@H]2O` [PACLITAXEL], for which the bioavailability in [1] came to 64.7%; in series [14] it was 8.8%. Besides, the Tmax in series [2] is 2 h; in series [3] it was 0.44 h; in series [11], 2.65 h. Further, the results for the Vd/F in [4], in [19] and in series [20] were 19.06 L, 5.06 L and 67.4 L, respectively. For the same compound, the CL/F in series [5] is 2.88 L/h; in series [8], 4.43 L/h; in series [18], 546 mL/min. For the same compound, the AUC(0-t) in series [6] is 4490 ng·h/mL; in series [10] it was 1730 ng·h/mL; in series [16], 611 ng·h/mL. Also, the Cmax in [7] was 926 ng/mL; in series [9], 853 ng/mL; in series [17], 233 ng/mL. In [12], this compound had an F of 100%. The half-life is 1.35 h in the series “in vivo [13]” and 7.2 min in the series “in vivo [15]”.
